Laboratory results from paper PMC9186362, “Design and biological evaluation of substituted 5,7-dihydro-6H-indolo[2,3-c]quinolin-6-one as novel selective Haspin inhibitors” (Journal of Enzyme Inhibition and Medicinal Chemistry, 2022).

What was measured:
Assay in all cases: SelectScreen ZLYTE
Format in all cases: biochemical
Conditions in all cases: ATP Km, read-out: Percentage of inhibition
KDR (VEGFR2) = KDR (VEGFR2) (Homo sapiens, UniProt P35968)
Experimental: (§1) We further evaluated the selectivity profile of compound 55 on a larger panel of kinases (SelectScreen Whole Panel, Life Technologies). The inhibition profile of 55, evaluated at 1 μM, is depicted on a dendrogram on Figure 3 where kinases inhibited by a minimum of 80% are shown. A full list of the kinases tested is shown on Table S1 in supplementary information.

EGFR (ErbB1) L858R = target: T1, EGFR (ErbB1) L858R (Homo sapiens, UniProt P00533, L858R)
T1 construct: purchased Life Technologies (SelectScreen Whole Panel)
Experimental: as §1

EGFR (ErbB1) T790M L858R = EGFR (ErbB1) T790M L858R (Homo sapiens, UniProt P00533, L858R/T790M)
Chain of EGFR (ErbB1) T790M L858R (P00533 25-1210 T790M/L858R): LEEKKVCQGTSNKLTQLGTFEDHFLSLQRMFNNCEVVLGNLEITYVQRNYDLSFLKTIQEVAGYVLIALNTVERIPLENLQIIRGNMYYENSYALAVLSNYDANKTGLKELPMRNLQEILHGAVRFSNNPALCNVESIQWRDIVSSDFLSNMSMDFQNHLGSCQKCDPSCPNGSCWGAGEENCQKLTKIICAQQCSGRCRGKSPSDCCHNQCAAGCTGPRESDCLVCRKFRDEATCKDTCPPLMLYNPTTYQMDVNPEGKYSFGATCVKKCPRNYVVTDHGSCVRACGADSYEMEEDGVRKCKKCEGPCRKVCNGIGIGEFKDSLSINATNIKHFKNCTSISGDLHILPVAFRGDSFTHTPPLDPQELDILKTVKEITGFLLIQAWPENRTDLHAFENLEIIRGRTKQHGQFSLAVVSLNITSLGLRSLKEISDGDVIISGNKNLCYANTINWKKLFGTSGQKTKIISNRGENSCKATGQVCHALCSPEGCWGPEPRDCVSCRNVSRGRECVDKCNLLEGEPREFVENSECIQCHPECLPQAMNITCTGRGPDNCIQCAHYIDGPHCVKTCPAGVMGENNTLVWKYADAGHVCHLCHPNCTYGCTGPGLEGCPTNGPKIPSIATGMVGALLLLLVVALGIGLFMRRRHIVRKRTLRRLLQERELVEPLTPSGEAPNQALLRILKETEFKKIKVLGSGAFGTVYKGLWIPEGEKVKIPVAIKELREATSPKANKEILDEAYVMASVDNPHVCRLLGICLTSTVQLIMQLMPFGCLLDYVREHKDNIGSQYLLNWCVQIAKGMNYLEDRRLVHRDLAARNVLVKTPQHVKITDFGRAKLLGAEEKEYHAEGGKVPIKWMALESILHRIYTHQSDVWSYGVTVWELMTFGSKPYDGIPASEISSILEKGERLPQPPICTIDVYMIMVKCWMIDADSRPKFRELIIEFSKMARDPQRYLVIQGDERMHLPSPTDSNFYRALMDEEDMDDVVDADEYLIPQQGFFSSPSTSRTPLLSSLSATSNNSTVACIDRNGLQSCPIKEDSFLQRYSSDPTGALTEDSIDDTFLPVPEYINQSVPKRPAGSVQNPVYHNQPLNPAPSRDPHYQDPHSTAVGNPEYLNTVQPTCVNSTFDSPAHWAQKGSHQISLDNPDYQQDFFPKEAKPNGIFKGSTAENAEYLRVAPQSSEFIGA
Experimental: as §1

DYRK3 = target: T2, DYRK3 (Homo sapiens, UniProt O43781)
T2 construct: purchased Life Technologies (SelectScreen service)
Experimental: as §1

FGFR3 = target: T3, FGFR3 (Homo sapiens, UniProt P22607)
T3 construct: purchased Life Technologies
T3 sequence (P22607 23-806): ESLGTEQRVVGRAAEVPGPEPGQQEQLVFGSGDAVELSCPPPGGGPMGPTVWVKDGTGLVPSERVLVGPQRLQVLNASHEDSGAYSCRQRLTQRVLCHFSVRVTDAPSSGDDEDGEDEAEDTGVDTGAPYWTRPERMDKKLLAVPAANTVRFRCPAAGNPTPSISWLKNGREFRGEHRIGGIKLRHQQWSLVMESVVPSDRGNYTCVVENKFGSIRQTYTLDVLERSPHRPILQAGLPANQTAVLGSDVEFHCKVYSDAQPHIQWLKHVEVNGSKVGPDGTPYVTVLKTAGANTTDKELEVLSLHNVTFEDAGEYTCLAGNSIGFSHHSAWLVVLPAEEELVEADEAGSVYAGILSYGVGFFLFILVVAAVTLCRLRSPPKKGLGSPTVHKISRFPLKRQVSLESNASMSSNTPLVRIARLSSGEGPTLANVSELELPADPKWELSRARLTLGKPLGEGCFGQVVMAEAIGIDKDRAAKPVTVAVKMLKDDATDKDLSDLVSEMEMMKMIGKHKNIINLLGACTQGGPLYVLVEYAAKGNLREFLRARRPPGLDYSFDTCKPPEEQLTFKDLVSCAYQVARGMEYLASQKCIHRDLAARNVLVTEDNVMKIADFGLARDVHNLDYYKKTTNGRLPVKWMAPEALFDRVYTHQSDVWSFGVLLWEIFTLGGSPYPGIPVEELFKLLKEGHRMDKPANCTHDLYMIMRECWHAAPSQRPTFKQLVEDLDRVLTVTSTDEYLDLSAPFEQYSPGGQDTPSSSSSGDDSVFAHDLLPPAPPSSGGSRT
Experimental: as §1

DCAMKL1 (DCLK1) = target: T4, DCAMKL1 (DCLK1) (Homo sapiens, UniProt O15075)
T4 construct: purchased Life Technologies
Experimental: as §1

NIM1K = target: T5, NIM1K (Homo sapiens, UniProt Q8IY84)
T5 construct: purchased Life Technologies (SelectScreen)
Experimental: as §1

STK24 (MST3) = STK24 (MST3) (Homo sapiens, UniProt Q9Y6E0)
Experimental: as §1

BRSK1 (SAD1) = target: T6, BRSK1 (SAD1) (Homo sapiens, UniProt Q8TDC3)
T6 construct: purchased Life Technologies (SelectScreen Whole Panel service)
Experimental: as §1

CSK = target: T7, CSK (Homo sapiens, UniProt P41240)
T7 construct: purchased Life Technologies (SelectScreen)
Experimental: as §1

SGK2 = SGK2 (Homo sapiens, UniProt Q9HBY8)
Experimental: as §1

STK25 (YSK1) = target: T8, STK25 (YSK1) (Homo sapiens, UniProt O00506)
T8 construct: purchased Life Technologies (SelectScreen Whole Panel service)
Experimental: as §1

CDC42 BPA (MRCKA) = CDC42 BPA (MRCKA) (Homo sapiens, UniProt Q5VT25)
Experimental: as §1

MAPK3 (ERK1) = target: T9, MAPK3 (ERK1) (Homo sapiens, UniProt P27361)
T9 construct: purchased Life Technologies
Experimental: as §1

TEK (TIE2) Y897S = target: T10, TEK (TIE2) Y897S (Homo sapiens, UniProt Q02763, Y897S)
T10 construct: purchased Life Technologies (SelectScreen Whole Panel)
Experimental: as §1

PAK3 = target: T11, PAK3 (Homo sapiens, UniProt O75914)
T11 construct: purchased Life Technologies
Experimental: as §1

MARK3 = target: T12, MARK3 (Homo sapiens, UniProt P27448)
T12 construct: purchased Life Technologies
Experimental: as §1

KSR2 = KSR2 (Homo sapiens, UniProt Q6VAB6)
Experimental: as §1

RET Y791F = target: T13, RET Y791F (Homo sapiens, UniProt P07949, Y791F)
T13 construct: purchased Life Technologies
T13 sequence (P07949 29-1114 Y791F): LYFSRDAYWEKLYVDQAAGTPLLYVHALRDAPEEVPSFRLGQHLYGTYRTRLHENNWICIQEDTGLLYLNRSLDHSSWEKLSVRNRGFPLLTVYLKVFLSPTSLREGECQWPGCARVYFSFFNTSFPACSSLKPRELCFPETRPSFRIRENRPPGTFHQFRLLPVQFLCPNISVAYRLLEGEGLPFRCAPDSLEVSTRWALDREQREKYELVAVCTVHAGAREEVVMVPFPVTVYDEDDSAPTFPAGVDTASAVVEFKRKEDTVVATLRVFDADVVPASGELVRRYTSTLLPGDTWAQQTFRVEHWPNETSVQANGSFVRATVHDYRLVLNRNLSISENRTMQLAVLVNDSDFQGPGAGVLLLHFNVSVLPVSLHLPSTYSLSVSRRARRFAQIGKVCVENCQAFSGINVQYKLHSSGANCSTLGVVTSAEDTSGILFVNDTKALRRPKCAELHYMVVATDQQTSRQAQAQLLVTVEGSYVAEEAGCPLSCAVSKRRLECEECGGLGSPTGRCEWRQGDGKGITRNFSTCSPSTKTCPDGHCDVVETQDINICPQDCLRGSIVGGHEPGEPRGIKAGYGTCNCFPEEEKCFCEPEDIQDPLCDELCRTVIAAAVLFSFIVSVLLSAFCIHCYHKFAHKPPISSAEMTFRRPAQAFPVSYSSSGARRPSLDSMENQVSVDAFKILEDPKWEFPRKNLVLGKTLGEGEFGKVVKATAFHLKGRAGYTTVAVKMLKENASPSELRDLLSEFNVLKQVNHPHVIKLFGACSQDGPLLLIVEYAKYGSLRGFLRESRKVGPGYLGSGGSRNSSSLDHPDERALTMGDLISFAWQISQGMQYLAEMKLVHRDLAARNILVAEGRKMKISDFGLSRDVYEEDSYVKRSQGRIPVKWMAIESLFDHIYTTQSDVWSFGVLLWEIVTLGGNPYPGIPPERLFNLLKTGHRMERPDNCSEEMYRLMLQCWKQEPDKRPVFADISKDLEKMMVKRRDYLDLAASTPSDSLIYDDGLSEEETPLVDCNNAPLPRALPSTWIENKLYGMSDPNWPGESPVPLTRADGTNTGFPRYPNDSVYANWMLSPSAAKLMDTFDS
Experimental: as §1

ABL2 (Arg) = target: T14, ABL2 (Arg) (Homo sapiens, UniProt P42684)
T14 construct: purchased Life Technologies (SelectScreen service)
Experimental: as §1

PDGFRA V561D = target: T15, PDGFRA V561D (Homo sapiens, UniProt P16234, V561D)
T15 construct: purchased Life Technologies (SelectScreen service)
Experimental: as §1

IGF1R = IGF1R (Homo sapiens, UniProt P08069)
Experimental: as §1

FGFR4 = FGFR4 (Homo sapiens, UniProt P22455)
Chain of FGFR4 (P22455 22-802): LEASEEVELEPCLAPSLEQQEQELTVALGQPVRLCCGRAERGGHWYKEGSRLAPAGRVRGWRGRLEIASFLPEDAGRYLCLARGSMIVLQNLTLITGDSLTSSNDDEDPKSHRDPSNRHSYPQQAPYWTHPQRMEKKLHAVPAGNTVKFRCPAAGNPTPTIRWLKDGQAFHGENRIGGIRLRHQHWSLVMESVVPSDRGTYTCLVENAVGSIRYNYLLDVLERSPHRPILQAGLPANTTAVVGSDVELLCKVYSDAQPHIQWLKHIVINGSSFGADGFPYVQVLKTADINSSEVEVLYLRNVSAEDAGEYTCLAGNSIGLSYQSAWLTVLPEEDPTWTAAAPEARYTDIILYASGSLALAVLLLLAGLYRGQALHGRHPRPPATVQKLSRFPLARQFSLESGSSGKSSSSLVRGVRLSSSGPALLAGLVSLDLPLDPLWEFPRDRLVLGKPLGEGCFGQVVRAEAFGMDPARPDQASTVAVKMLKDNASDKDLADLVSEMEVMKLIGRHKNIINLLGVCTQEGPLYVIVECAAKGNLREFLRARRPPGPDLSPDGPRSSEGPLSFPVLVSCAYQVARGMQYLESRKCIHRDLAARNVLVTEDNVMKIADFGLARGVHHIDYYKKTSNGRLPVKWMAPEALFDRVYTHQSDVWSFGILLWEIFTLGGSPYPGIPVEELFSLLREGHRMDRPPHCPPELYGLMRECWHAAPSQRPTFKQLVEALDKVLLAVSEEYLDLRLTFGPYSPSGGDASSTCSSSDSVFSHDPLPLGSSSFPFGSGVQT
Experimental: as §1

MERTK = target: T16, MERTK (Homo sapiens, UniProt Q12866)
T16 construct: purchased Life Technologies (SelectScreen Whole Panel service)
T16 sequence (Q12866 21-999): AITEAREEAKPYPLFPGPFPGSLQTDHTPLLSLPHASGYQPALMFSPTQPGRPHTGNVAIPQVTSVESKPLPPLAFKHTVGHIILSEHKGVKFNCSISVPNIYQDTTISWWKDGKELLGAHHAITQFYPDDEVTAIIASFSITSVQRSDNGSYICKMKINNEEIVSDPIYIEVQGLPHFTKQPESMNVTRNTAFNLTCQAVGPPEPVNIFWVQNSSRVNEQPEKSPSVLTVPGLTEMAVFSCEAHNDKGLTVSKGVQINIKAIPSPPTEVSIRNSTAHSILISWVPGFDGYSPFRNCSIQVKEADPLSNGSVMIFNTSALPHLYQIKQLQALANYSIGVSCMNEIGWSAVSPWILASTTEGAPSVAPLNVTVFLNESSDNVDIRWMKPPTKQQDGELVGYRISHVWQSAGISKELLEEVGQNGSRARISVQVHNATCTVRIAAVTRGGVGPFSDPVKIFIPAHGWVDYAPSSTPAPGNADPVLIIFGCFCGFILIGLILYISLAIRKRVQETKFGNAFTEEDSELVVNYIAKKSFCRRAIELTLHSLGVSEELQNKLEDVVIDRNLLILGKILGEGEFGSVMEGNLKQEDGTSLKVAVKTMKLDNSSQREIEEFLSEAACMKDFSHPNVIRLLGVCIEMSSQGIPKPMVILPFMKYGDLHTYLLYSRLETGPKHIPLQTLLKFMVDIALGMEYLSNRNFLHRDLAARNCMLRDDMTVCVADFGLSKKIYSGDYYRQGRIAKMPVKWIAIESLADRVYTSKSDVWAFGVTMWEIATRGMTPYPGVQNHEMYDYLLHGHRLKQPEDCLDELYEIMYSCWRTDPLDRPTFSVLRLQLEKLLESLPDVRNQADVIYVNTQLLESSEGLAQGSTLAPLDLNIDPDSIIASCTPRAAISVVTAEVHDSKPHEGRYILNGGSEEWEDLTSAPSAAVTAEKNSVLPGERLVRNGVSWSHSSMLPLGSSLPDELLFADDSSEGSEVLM
Experimental: as §1

EGFR (ErbB1) = target: T17, EGFR (ErbB1) (Homo sapiens, UniProt P00533)
T17 construct: purchased Life Technologies
Experimental: as §1

MAPK11 (p38 beta) = target: T18, MAPK11 (p38 beta) (Homo sapiens, UniProt Q15759)
T18 construct: purchased Life Technologies (SelectScreen)
Experimental: as §1

PAK1 = PAK1 (Homo sapiens, UniProt Q13153)
Experimental: as §1

MAP3K9 (MLK1) = MAP3K9 (MLK1) (Homo sapiens, UniProt P80192)
Experimental: as §1

PAK7 (KIAA1264) = target: T19, PAK7 (KIAA1264) (Homo sapiens, UniProt Q9P286)
T19 construct: purchased Life Technologies (SelectScreen)
Experimental: as §1

HIPK1 (Myak) = HIPK1 (Myak) (Homo sapiens, UniProt Q86Z02)
Experimental: as §1

FER = FER (Homo sapiens, UniProt P16591)
Experimental: as §1

FLT3 D835Y = target: T20, FLT3 D835Y (Homo sapiens, UniProt P36888, D835Y)
T20 construct: purchased Life Technologies (SelectScreen Whole Panel)
Experimental: as §1

EPHA2 = target: T21, EPHA2 (Homo sapiens, UniProt P29317)
T21 construct: purchased Life Technologies
Experimental: as §1

RPS6KA4 (MSK2) = target: T22, RPS6KA4 (MSK2) (Homo sapiens, UniProt O75676)
T22 construct: purchased Life Technologies
Experimental: as §1

MARK2 = target: T23, MARK2 (Homo sapiens, UniProt Q7KZI7)
T23 construct: purchased Life Technologies (SelectScreen Whole Panel service)
Experimental: as §1

SNF1LK2 = target: T24, SNF1LK2 (Homo sapiens, UniProt Q9H0K1)
T24 construct: purchased Life Technologies (SelectScreen service)
Experimental: as §1

DYRK4 = target: T25, DYRK4 (Homo sapiens, UniProt Q9NR20)
T25 construct: purchased Life Technologies
Experimental: as §1

GRK7 = target: T26, GRK7 (Homo sapiens, UniProt Q8WTQ7)
T26 construct: purchased Life Technologies (SelectScreen service)
Experimental: as §1

SYK = target: T27, SYK (Homo sapiens, UniProt P43405)
T27 construct: purchased Life Technologies (SelectScreen service)
Experimental: as §1

## COc1ccc2[nH]c3c(=O)[nH]c4ccc(O)cc4c3c2c1 [Compound 55, 2-Hydroxy-10-methoxy-5,7-dihydro-6H-indolo[2,3-c]quinolin-6-one]
KDR (VEGFR2)
  inhibition at 1 µM: 67%
EGFR (ErbB1) L858R
  inhibition at 1 µM: -1%
EGFR (ErbB1) T790M L858R
  inhibition at 1 µM: 20%
DYRK3
  inhibition at 1 µM: 86%
FGFR3
  inhibition at 1 µM: 3%
DCAMKL1 (DCLK1)
  inhibition at 1 µM: 2%
NIM1K
  inhibition at 1 µM: 9%
STK24 (MST3)
  inhibition at 1 µM: 63%
BRSK1 (SAD1)
  inhibition at 1 µM: 45%
CSK
  inhibition at 1 µM: 9%
SGK2
  inhibition at 1 µM: 19%
STK25 (YSK1)
  inhibition at 1 µM: 19%
CDC42 BPA (MRCKA)
  inhibition at 1 µM: 13%
MAPK3 (ERK1)
  inhibition at 1 µM: 27%
TEK (TIE2) Y897S
  inhibition at 1 µM: 1%
PAK3
  inhibition at 1 µM: 5%
MARK3
  inhibition at 1 µM: 31%
KSR2
  inhibition at 1 µM: 7%
RET Y791F
  inhibition at 1 µM: 96%
ABL2 (Arg)
  inhibition at 1 µM: 24%
PDGFRA V561D
  inhibition at 1 µM: 79%
IGF1R
  inhibition at 1 µM: 13%
FGFR4
  inhibition at 1 µM: 22%
MERTK
  inhibition at 1 µM: 44%
EGFR (ErbB1)
  inhibition at 1 µM: 4%
MAPK11 (p38 beta)
  inhibition at 1 µM: 8%
PAK1
  inhibition at 1 µM: 6%
MAP3K9 (MLK1)
  inhibition at 1 µM: 63%
PAK7 (KIAA1264)
  inhibition at 1 µM: 8%
HIPK1 (Myak)
  inhibition at 1 µM: 58%
FER
  inhibition at 1 µM: 56%
FLT3 D835Y
  inhibition at 1 µM: 100%
EPHA2
  inhibition at 1 µM: 40%
RPS6KA4 (MSK2)
  inhibition at 1 µM: 39%
MARK2
  inhibition at 1 µM: 12%
SNF1LK2
  inhibition at 1 µM: 24%
DYRK4
  inhibition at 1 µM: 42%
GRK7
  inhibition at 1 µM: 74%
SYK
  inhibition at 1 µM: 82%
